Key:
GL-1 cells = assay: MTT cytotoxicity, GL-1; assay type: cell-based, canine; details: Canis lupus familiaris; GL-1, MTT, 72 h, mean ± SD; read-out: IC50 values after 72 h
Excerpt: (§1) The study involved four canine cancer cell lines: RDSVS-TCC1 and K9NK (bladder cancer), CLBL-1 (B-cell lymphoma), GL-1 (B/T-cell leukemia) and noncancerous cell line CF2TH (fetal canine thymus). CLBL-1 was obtained from Barbara C.Ruetgen from the Institute of Immunology, Department of Pathobiology, University of Veterinary Medicine, Vienna[48]. GL-1 from Yasuhito Fujino and Hajime Tsujimoto of the University of Tokyo, Department of Veterinary Internal Medicine[49]. The CF2TH cell line was purchased from American Type Culture Collection (ATCC, Rockville, MD, USA).
(§2) The cell lines were maintained in RPMI- 1640 (CLBL-1, GL-1 and CF2TH) (Gibco, Grand Island, NY, USA) or DMEM (Institute of Immunology and Experimental Therapy, Polish Academy of Sciences, Wrocław, Poland) (RDSVS-TCC1, K9NK) culture medium supplemented with 10% fetal bovine serum FBS (Gibco, Grand Island, NY, USA), 100 units/mL penicillin and […] streptomycin and 1% of L-glutamine (Sigma Aldrich, Steinheim, Germany).
(§3) The cytotoxicity assay was determined by MTT test after 72 h of treatment, according to the procedure described previously[50] with minor modifications.
(§4) In summary, the cells plated at the density of 3*10^4 (k9NK, RDSVS-TCC1), 2*10^5 (CLBL-1, GL-1) and 7.5*10^3 (CF2TH) per mililiter were seeded in 96-well plates (NUNC, Denmark).
(§5) The concentration of tested flavonoids was in the range 1.25–50 µM and DMSO concentration was < 1% in each dilution which is considered harmless to the cells). After incubation for 72 h, 10 µl of 3-(4,5-dimethylthiazol-2-yl)-2,5-diphenyltetrazolium bromide (MTT) solution was added to each well followed by 4 h incubation, then 40 μL of lysis buffer were added. The optical density (OD) of formazan formed from MTT was measured after 24 h using a spectrophotometric microplate reader (Spark, Tecan, Männedorf, Switzerland) at […] 570 nm.
(§6) The results were: determined from more than three independent experiments (three wells each) and presented as mean IC50 value ± SD.

RDSVS-TCC1 cells = assay: MTT cytotoxicity, RDSVS-TCC1; assay type: cell-based, canine; details: Canis lupus familiaris, 72 h, mean ± SD, read-out: IC50 values after 72 h
Excerpt: as §1, §2, §3, §4, §5, §6

[1] = test system: RDSVS-TCC1, GL-1, CLBL-1, CF2TH cells; assay: MTT cytotoxicity, all lines tested except K9NK; assay type: cell-based, canine; details: Canis lupus familiaris, 72 h
Excerpt: as §1, §2, §3, §4, §5, §6

K9NK cells = assay: MTT cytotoxicity, K9NK; assay type: cell-based, canine; details: Canis lupus familiaris, 72 h, mean ± SD, read-out: IC50 values after 72 h
Excerpt: as §1, §2, §3, §4, §5, §6

CLBL-1 cells = assay: MTT cytotoxicity, CLBL-1; assay type: cell-based, canine; details: Canis lupus familiaris; CLBL-1, MTT, 72 h, mean ± SD; read-out: IC50 values after 72 h
Excerpt: as §1, §2, §3, §4, §5, §6

CF2TH cells = assay: MTT cytotoxicity, CF2TH normal cell line; assay type: cell-based, canine; details: Canis lupus familiaris, 72 h, mean ± SD, read-out: IC50 values after 72 h
Excerpt: as §1, §2, §3, §4, §5, §6

[2] = Hemolysis of red blood cells; assay type: cell-based; details: human, human red blood cells (erythrocytes), read-out: degree of haemolysis
Method: The cytotoxicity level of the compounds was assessed through a haemolytic activity test, measuring the impact of six compounds at concentrations of […] on human red blood cells (RBCs). According to toxicity categorization, compounds are considered highly toxic if they cause a haemolysis rate of 90–100% and are considered non-toxic if the haemolysis rate falls within the range of 0–9%[28].
Hemolysis, a method to assess the release of hemoglobin from red blood cells (RBCs), was comprehensively explained in our prior research.
For erythrocytes with a hematocrit level of 12%, the compounds were introduced at concentrations of 10, 20, 40 and 60 μM. The prepared samples were kept at 37 °C for 1 and 24 h.
After the incubation period, the samples underwent centrifugation, and the hemoglobin concentration in the supernatants was quantified using a UV–VIS spectrophotometer (Specord 40, AnalytikJena) at a wavelength of 540 nm. The percentage of RBCs hemolysis were determined by comparing the absorbance of hemoglobin in the tested samples to the absorbance of hemoglobin in completely hemolyzed cells (100%). Samples achieving total hemolysis (100%) were generated by adding distilled water.

[3] = test system: breast cancer cells MCF-7; parameters: method as in PMID 32364671; details: cited from earlier work

Structure (SMILES): O=c1cc(-c2ccc(Cl)cc2)oc2ccccc12 [D3, 4′-chloroflavone]
- IC50 (GL-1 cells): 35.1 ± 6.17 µM
- IC50 (RDSVS-TCC1 cells): 28.2 ± 5.62 µM
- IC50 [1]: ~30 µM
- IC50 (K9NK cells): 19.4 ± 6.75 µM
- IC50 (CLBL-1 cells): 32.8 ± 2.11 µM
- IC50 (CF2TH cells): 28.4 ± 5.02 µM

Structure (SMILES): O=c1cc(-c2ccccc2)oc2ccc(Cl)cc12 [D4, 6-chloroflavone]
- IC50 (GL-1 cells): 62.4 ± 2.89 µM
- hemolysis at 24 h, 30 µM ([2]; 30 μM): 10.8 ± 5.46%
- IC50 (RDSVS-TCC1 cells): 58.7 ± 13.3 µM
- IC50 (K9NK cells): 35.6 ± 3.41 µM
- IC50 (CLBL-1 cells): 74.4 ± 28.7 µM
- IC50 (CF2TH cells): 80.9 ± 14.1 µM

Structure (SMILES): O=c1cc(-c2ccccc2)oc2c(Cl)cc(Cl)cc12 [D5, 6,8-dichloroflavone]
- IC50 (GL-1 cells): 38.8 ± 6.48 µM
- IC50 (RDSVS-TCC1 cells): 43 ± 11.3 µM
- IC50 (K9NK cells): 30.5 ± 13.8 µM
- IC50 (CLBL-1 cells): 76.4 ± 23.2 µM
- IC50 (CF2TH cells): 28.5 ± 18 µM

Structure (SMILES): O=c1cc(-c2ccccc2)oc2c(Br)c(O)c(O)c(O)c12 [8-bromobaicalei]
- IC50 [3]: 10 ± 3 µM

Structure (SMILES): O=c1cc(-c2cccc(Cl)c2)oc2ccccc12 [D2, 3′-chloroflavone]
- IC50 (GL-1 cells): 26.5 ± 4.57 µM
- hemolysis at 24 h, 40 µM ([2]; 40 μM): 16 ± 1.78%
- hemolysis at 24 h, 50 µM ([2]; 50 μM): 22.7 ± 1.98%
- IC50 (RDSVS-TCC1 cells): 31.6 ± 5.97 µM
- IC50 [1]: ~30 µM
- IC50 (K9NK cells): 31.2 ± 6.87 µM
- IC50 (CLBL-1 cells): 26.3 ± 6.33 µM
- IC50 (CF2TH cells): 22.9 ± 6.88 µM

Structure (SMILES): O=c1cc(-c2ccccc2)oc2c(Br)cc(Cl)cc12 [D6, 8-bromo-6-chloroflavone]
- IC50 (GL-1 cells): 47.2 ± 1.41 µM
- IC50 (RDSVS-TCC1 cells): 37.7 ± 14.4 µM
- IC50 (K9NK cells): 29.1 ± 16.2 µM
- IC50 (CLBL-1 cells): 38.1 ± 7.81 µM
- IC50 (CF2TH cells): 38.1 ± 7.87 µM

Structure (SMILES): O=c1cc(-c2ccccc2Cl)oc2ccccc12 [D1, 2′-chloroflavone]
- IC50 (GL-1 cells): 26.5 ± 3.05 µM
- IC50 (RDSVS-TCC1 cells): 32.6 ± 8.04 µM
- melting point: 109 to 110 °C
- IC50 [1]: ~30 µM
- IC50 (K9NK cells): 59.9 ± 14.7 µM
- IC50 (CLBL-1 cells): 26.6 ± 3.61 µM
- IC50 (CF2TH cells): 28.2 ± 6.6 µM

Reference: publication PMC11078956, “Structural investigation of interactions between halogenated flavonoids and the lipid membrane along with their role as cytotoxic agents” (Scientific Reports, 2024)
